Measurements taken from patent US12612412B2, “Antiviral heterocyclic compounds” (Enanta Pharmaceuticals, Inc., priority 2021, dated 2026).

Each compound was assayed on genotype A, "Long" strain RSV (assay: RSV-A assay (CPE protection in Hep-2 cells, ATPlite readout)). Conditions: human respiratory syncytial virus, genotype A “Long” strain RSV, MOI 0.1, CPE protection, read-out: Human RSV-A (“Long”).
Type: cell-based, Human respiratory syncytial virus (HRSV)
Text: Hep-2 cells, (originally derived from tumors grown in irradiated-cortisonised weanling rats that had been injected with epidermoid carcinoma tissue from the larynx of a person, but later found to be indistinguishable from HeLa cells by PCR DNA analysis), were used for the culturing of genotype A, “Long” strain RSV. Flasks were inoculated with RSV and viral stocks were collected once cytopathic effect (CPE) was greater than 90%. Viral stocks in 25% sucrose media were snap frozen using liquid nitrogen to increase viral stability. Viral stock titers were quantified by tissue culture infectious dose 50% (TCID50) using 8,000 cells per well and 3-fold viral dilutions across a 96-well plate, cultured for 4 days. Viral stock titers were also quantified by a plaque forming unit assay, as described elsewhere.
Following extensive parameter testing, the final assay is run as follows: Hep-2 cells are seeded into the inner 60 wells of a 96-well plate at 8,000 cells per well in a volume of 50 μL using Growth Media (DMEM without phenol red, 1% L-Glut, 1% Penn/Strep, 1% nonessential amino acids, 10% heat-inactivated FBS). 2-fold serial dilutions of control and test compounds are added to the wells in duplicate in a total volume of 25 μL. Viral stock is then added to the wells at a multiplicity of infection (MOI) of 0.1 in a volume of 25 μL, bringing the total volume of each well to 100 μL. The MOI is calculated using the PFU/mL, or TCID50 if unavailable. Each 96-well plate has a control column of 6 wells with cells and virus but no compound (negative control, max CPE), a column with cells but no compound or virus (positive control, minimum CPE), and a column with no cells or virus or compound (background plate/reagent control). The control wells with cells but no virus are given an additional 25 μL of growth media containing an equal quantity of sucrose as those wells receiving the viral stock in order to keep consistent in media and volume conditions. The outer wells of the plate are filled with 125 μL of moat media (DMEM, 1% Penn/Strep) to act as a thermal and evaporative moat around the test wells. Following a 5-day incubation period, the plates are read using ATPlite (50 uL added per well), which quantifies the amount of ATP (a measure of cell health) present in each well. Assay plates are read using the Envision luminometer. […] EC50 ranges are as follows: A<0.2 μM; B>0.2 μM.

| Compound | EC50 [nM] |
| --- | --- |
| COc1cc(C(=O)NC[C@](O)(c2cc3c(c(-c4ccc(F)cc4)n2)OC[C@]3(CCl)C(N)=O)C(F)(F)F)cc2cc(C)c(C)nc12 [Example 233, (S)-3-(chloromethyl)-7-(4-fluorophenyl)-5-((S)-1,1,1-trifluoro-2-hydroxy-3-(8-methoxy-2,3-dimethylquinoline-6-carboxamido)propan-2-yl)-2,3-dihydrofuro[2,3-c]pyridine-3-carboxamide] | < 200 |
| CC[C@]1(C(N)=O)COc2c1cc([C@@](O)(CNC(=O)c1cc(OC)c3nc(C4CC4)cn3c1)C(F)(F)F)nc2-c1ccc(F)cc1 [Example 236] | < 200 |
| CC[C@]1(C(N)=O)COc2c1cc([C@@](O)(CNC(=O)c1cc(OC)c3ncccc3c1)C(F)(F)F)nc2-c1ccc(F)cc1 [Example 237] | < 200 |
| CC[C@]1(C(N)=O)COc2c1cc([C@@](O)(CNC(=O)c1cc(OC)c3nc(C)c(Cl)cc3c1)C(F)(F)F)nc2-c1ccc(F)cc1 [Example 238] | > 200 |
| CC[C@]1(C(N)=O)COc2c1cc([C@@](O)(CNC(=O)c1cc(OC)c3ncc(C(F)(F)F)cc3c1)C(F)(F)F)nc2-c1ccc(F)cc1 [Example 239] | < 200 |
| CC[C@]1(C(N)=O)COc2c1cc([C@@](O)(CNC(=O)c1ccc(OC3CC3)c(OC)c1)C(F)(F)F)nc2-c1ccc(F)cc1 [Example 241] | < 200 |
| CC[C@]1(C(N)=O)COc2c1cc([C@@](O)(CNC(=O)c1ccc(OC[C@@H](C)O)c(OC3CC3)c1)C(F)(F)F)nc2-c1ccc(F)cc1 [Example 242] | < 200 |
| CC[C@@]1(C(N)=O)COc2c1cc([C@@](O)(CNC(=O)c1cc(OC)c3nn(C(F)F)cc3c1)C(F)(F)F)nc2-c1ccc(F)cc1 [Example 243] | > 200 |
| CC[C@@]1(C(N)=O)COc2c1cc([C@@](O)(CNC(=O)c1cc(OC3CC3)c3ncccc3c1)C(F)(F)F)nc2-c1ccc(F)cc1 [Example 244] | > 200 |
| CC[C@@]1(C(N)=O)COc2c1cc([C@@](O)(CNC(=O)c1cc(OC)c3nc(C4CC4)cn3c1)C(F)(F)F)nc2-c1ccc(F)cc1 [Example 245] | < 200 |
| CC[C@@]1(C(N)=O)COc2c1cc([C@@](O)(CNC(=O)c1cc(OC)c3ncccc3c1)C(F)(F)F)nc2-c1ccc(F)cc1 [Example 246] | > 200 |
| CC[C@@]1(C(N)=O)COc2c1cc([C@@](O)(CNC(=O)c1cc(OC)c3nc(C)c(Cl)cc3c1)C(F)(F)F)nc2-c1ccc(F)cc1 [Example 247] | > 200 |
| CC[C@@]1(C(N)=O)COc2c1cc([C@@](O)(CNC(=O)c1cc(OC)c3ncc(C(F)(F)F)cc3c1)C(F)(F)F)nc2-c1ccc(F)cc1 [Example 248] | > 200 |
| CC[C@@]1(C(N)=O)COc2c1cc([C@@](O)(CNC(=O)c1ccc(OC3CC3)c(OC)c1)C(F)(F)F)nc2-c1ccc(F)cc1 [Example 250] | > 200 |
| CC[C@@]1(C(N)=O)COc2c1cc([C@@](O)(CNC(=O)c1ccc(OC[C@@H](C)O)c(OC3CC3)c1)C(F)(F)F)nc2-c1ccc(F)cc1 [Example 251] | > 200 |
| COc1cc(C(=O)NC[C@](O)(c2cc3c(c(-c4ccc(F)cc4)n2)OCC3(C(N)=O)C(F)F)C(F)(F)F)cc2c1=NC(C1CC1)N=2 (stereo partly shown) [Example 253] | < 200 |
| COc1cc(C(=O)NC[C@](O)(c2cc3c(c(-c4ccc(F)cc4)n2)OCC3(C(N)=O)C(F)F)C(F)(F)F)cc2cccnc12 (stereo partly shown) [Example 254] | < 200 |
| COc1cc(C(=O)NC[C@](O)(c2cc3c(c(-c4ccc(F)cc4)n2)OCC3(C(N)=O)C(F)F)C(F)(F)F)cc2cn(C(F)F)nc12 (stereo partly shown) [Example 255] | < 200 |
| COc1cc(C(=O)NC[C@](O)(c2cc3c(c(-c4ccc(F)cc4)n2)OCC3(C(N)=O)C(F)F)C(F)(F)F)cc2cc(Cl)c(C)nc12 (stereo partly shown) [Example 256] | < 200 |
| COc1cc(C(=O)NC[C@](O)(c2cc3c(c(-c4ccc(F)cc4)n2)OCC3(C(N)=O)C(F)F)C(F)(F)F)cc2cc(C(F)(F)F)cnc12 (stereo partly shown) [Example 257] | < 200 |
| NC(=O)C1(C(F)F)COc2c1cc([C@@](O)(CNC(=O)c1cc(F)c3nc(N)sc3c1)C(F)(F)F)nc2-c1ccc(F)cc1 (stereo partly shown) [Example 258] | < 200 |
| COc1cc(C(=O)NC[C@](O)(c2cc3c(c(-c4ccc(F)cc4)n2)OCC3(C(N)=O)C(F)F)C(F)(F)F)cn2cc(C3CC3)nc12 (stereo partly shown) [Example 259] | < 200 |
| COc1cc(C(=O)NC[C@](O)(c2cc3c(c(-c4ccc(F)cc4)n2)OCC3(C(N)=O)C(F)F)C(F)(F)F)ccc1OC1CC1 (stereo partly shown) [Example 261] | < 200 |

| Compound | EC50 [nM] |
| --- | --- |
| NC(=O)[C@]1(C2CC2)COc2c1cc([C@@](O)(CNC(=O)c1cc(F)c3nc(N)sc3c1)C(F)(F)F)nc2-c1ccc(F)cc1 [Example 262] | > 200 |
| COc1cc(C(=O)NC[C@](O)(c2cc3c(c(-c4ccc(F)cc4)n2)OC[C@]3(C(N)=O)C2CC2)C(F)(F)F)cc2cc(C(F)(F)F)cnc12 [Example 264] | > 200 |
| COc1cc(C(=O)NC[C@](O)(c2cc3c(c(-c4ccc(F)cc4)n2)OC[C@]3(C(N)=O)C2CC2)C(F)(F)F)cc2cn(C(F)F)nc12 [Example 266] | > 200 |
| COc1cc(C(=O)NC[C@](O)(c2cc3c(c(-c4ccc(F)cc4)n2)OC[C@]3(C(N)=O)C2CC2)C(F)(F)F)cc2cccnc12 [Example 269] | > 200 |
| NC(=O)[C@]1(C2CC2)COc2c1cc([C@@](O)(CNC(=O)c1cc(OC3CC3)c3ncccc3c1)C(F)(F)F)nc2-c1ccc(F)cc1 [Example 271] | > 200 |
| COc1cc(C(=O)NC[C@](O)(c2cc3c(c(-c4ccc(F)cc4)n2)OC[C@@]3(C(N)=O)C2CC2)C(F)(F)F)cn2cc(C3CC3)nc12 [Example 272] | < 200 |
| COc1cc(C(=O)NC[C@](O)(c2cc3c(c(-c4ccc(F)cc4)n2)OC[C@]3(C(N)=O)C2CC2)C(F)(F)F)cn2cc(C3CC3)nc12 [Example 273] | > 200 |
| COc1cc(C(=O)NC[C@](O)(c2cc3c(c(-c4ccc(F)cc4)n2)OC[C@@]3(C(N)=O)C2CC2)C(F)(F)F)cc2cc(Cl)c(C)nc12 [Example 274] | < 200 |
| COc1cc(C(=O)NC[C@](O)(c2cc3c(c(-c4ccc(F)cc4)n2)OC[C@]3(C(N)=O)C2CC2)C(F)(F)F)cc2cc(Cl)c(C)nc12 [Example 275] | < 200 |
| COc1cc(C(=O)NC[C@](O)(c2cc3c(c(-c4ccc(F)cc4)n2)OC[C@@]3(C(N)=O)C2CC2)C(F)(F)F)ccc1OC1CC1 [Example 276] | < 200 |
| COc1cc(C(=O)NC[C@](O)(c2cc3c(c(-c4ccc(F)cc4)n2)OC[C@]3(C(N)=O)C2CC2)C(F)(F)F)ccc1OC1CC1 [Example 277] | > 200 |
| C[C@@H](O)COc1ccc(C(=O)NC[C@](O)(c2cc3c(c(-c4ccc(F)cc4)n2)OC[C@@]3(C(N)=O)C2CC2)C(F)(F)F)cc1OC1CC1 [Example 278] | < 200 |
| C[C@@H](O)COc1ccc(C(=O)NC[C@](O)(c2cc3c(c(-c4ccc(F)cc4)n2)OC[C@]3(C(N)=O)C2CC2)C(F)(F)F)cc1OC1CC1 [Example 279] | > 200 |
| COc1cc(C(=O)NC[C@](O)(c2cc3c(c(-c4ccc(F)cc4)n2)OC[C@]3(C(N)=O)C2CC2)C(F)(F)F)cc2cn(C3CC3)nc12 [Example 281] | > 200 |
| COc1cc(C(=O)NC[C@](O)(c2cc3c(c(-c4ccc(F)cc4)n2)OC[C@@]3(CF)C(N)=O)C(F)(F)F)cc2cccnc12 [Example 282] | > 200 |
| COc1cc(C(=O)NC[C@](O)(c2cc3c(c(-c4ccc(F)cc4)n2)OC[C@]3(CF)C(N)=O)C(F)(F)F)cc2cccnc12 [Example 283] | < 200 |
| COc1cc(C(=O)NC[C@](O)(c2cc3c(c(-c4ccc(F)cc4)n2)OC[C@@]3(CF)C(N)=O)C(F)(F)F)cc2cc(Cl)c(C)nc12 [Example 284] | < 200 |
| COc1cc(C(=O)NC[C@](O)(c2cc3c(c(-c4ccc(F)cc4)n2)OC[C@]3(CF)C(N)=O)C(F)(F)F)cc2cc(Cl)c(C)nc12 [Example 285] | < 200 |
| COc1cc(C(=O)NC[C@](O)(c2cc3c(c(-c4ccc(F)cc4)n2)OC[C@@]3(CF)C(N)=O)C(F)(F)F)cc2cc(C(F)(F)F)cnc12 [Example 286] | < 200 |
| COc1cc(C(=O)NC[C@](O)(c2cc3c(c(-c4ccc(F)cc4)n2)OC[C@]3(CF)C(N)=O)C(F)(F)F)cc2cc(C(F)(F)F)cnc12 [Example 287] | < 200 |
| COc1cc(C(=O)NC[C@](O)(c2cc3c(c(-c4ccc(F)cc4)n2)OCC3(CF)C(N)=O)C(F)(F)F)cc2cn(C(F)F)nc12 (stereo partly shown) [Example 288] | < 200 |
| NC(=O)[C@]1(CF)COc2c1cc([C@@](O)(CNC(=O)c1cc(F)c3nc(N)sc3c1)C(F)(F)F)nc2-c1ccc(F)cc1 [Example 289] | > 200 |
| NC(=O)[C@@]1(CF)COc2c1cc([C@@](O)(CNC(=O)c1cc(F)c3nc(N)sc3c1)C(F)(F)F)nc2-c1ccc(F)cc1 [Example 290] | < 200 |
